Test [1] relates to dorsal root ganglion (DRG) neurons. The test can be described thus: DRG explant neurite outgrowth on MMP-1-digested collagen treated with CMP. The format is cell-based, rat. As for the experimental part:
Plates were then rinsed with culture medium, and DRG neuronal cells were plated uniformly on plates having one of three surface coating conditions: (1) intact collagen; (2) MMP1-digested collagen; and (3) MMP1-digested collagen+CMP. Plates were then incubated at 37° C. for 24 hours or 48 hours, and then examined for morphology and neurite outgrowth by inverted brightfield microscopy.
To measure neurite outgrowth accurately, explants were visualized live using multifocal high-magnification phase contrast microscopy to optimize identification and measurement of the longest neurite (FIG. 2A, white arrow) and the size of the DRG explant growth field.

The test system of test [2] is cerebrovasculature of ApoE−/− STZ mice. Kind of test: Diabetic atherosclerosis mouse model (ApoE−/− + STZ + high fat diet), cerebrovascular immunohistochemistry. The format is in vivo. As for the experimental part: Animals. All animal studies were conducted in accordance with the NIH guide for the care and use of laboratory animals and approved by the Vanderbilt University Institutional Animal Care and Use Committee. For the studies described, 12-week-old ApoE^−/− (#002052) or C57/B6J wildtype (WT) (#000664) mice were obtained from Jackson Laboratories. Mice were housed in a facility managed by Vanderbilt University Division of Animal Care with ad libitum access to water and standard diet followed by ad libitum access to 45% high fat diet (Research Diet Inc.; Catalog #D12451) starting at the correct study time point. Mice were subjected to 12-hr. light/dark cycle.
Animal Model of Diabetic Atherosclerosis. A diabetic atherosclerosis mouse model was implemented by combining ApoE^−/− mice with a streptozocin STZ-induced diabetic phenotype. Prior to STZ injection and diet change, baseline fasting blood glucose measurements and weights were obtained. To induce hyperglycemia ApoE^−/− mice were injected with STZ (50 mg/Kg in 10 mM sodium citrate, pH4.5; Millipore Sigma Catalog #S0130) intraperitoneally for five consecutive days. For the duration of STZ injections, mice received drinking water supplemented with 10% sucrose. One week after the final STZ injection, blood glucose levels were measured to confirm hyperglycemia. Mice were fasted for 6 hours prior to glucose measurement and then anesthetized with 2.5% isoflurane. Tail snips were taken, and one drop of blood was placed on test strips to obtain readings. Tails were then stemmed of bleeding using a silver nitrate applicator (Avoca reference number #7482) before returning mice to their cages. Any mice not registering as hyperglycemic were removed from the study. Remaining mice were then switched to a 45% high fat diet (HFD) to accelerate atherosclerotic plaque formation. After 1 week on HFD, mice were randomly assigned to receive intravenous CMP (n=5) or PBS (1×PBS, n=4) once weekly for 12 weeks. Upon conclusion of the study, mice were anesthetized via intraperitoneal pentobarbital injection followed by transcardial perfusion of 1×PBS and 4% paraformaldehyde (PFA). One day prior to sacrifice, mice were injected via tail vein injection with Sulfo-NHS-Biotin in sterile 1×PBS (Thermo-Fisher; Catalog #21335).
Intravenous Administration of CMPs. The CMP used in the present Example was a 21-aa single-strand peptide consisting of a 7-repeat sequence of a tripeptide of 4-fluoroproline (Flp), hydroxyproline (Hyp), and glycine (Gly), and abbreviated as (cis-Flp-Hyp-Gly)7 (SEQ ID NO:6). This CMP was manufactured using standard solid-phase peptide synthesis chemistry in limited quantity by Bachem, AG (Germany). CMP was dissolved in sterile 1×PBS at a concentration of […] and sterilized using a 0.22 µm filter (Millipore Sigma, Burlington, MA, USA). Mice were weighed and restrained in an apparatus designed for tail vein injection. Tails were heated to dilate the veins prior to weekly injection, and […] of CMP in sterile 1×PBS (vehicle) was injected to accommodate a final concentration in each animal of 0.1 mg/Kg. An additional batch of this CMP was produced with attachment of the TideFluor™ 2 moiety (AAT Bioquest, Sunnyvale, CA, United States) to the peptide as a fluorescent reporter. This labeled CMP was injected intravenously at 100 μM concentration (100 μL) to identify binding in WT vs. ApoE^−/−+STZ mice. CMP was injected 48 hours prior to sacrifice and again immediately before transcardial perfusion of 4% PFA. One day prior to euthanasia, tail veins were injected with Sulfo-NHS biotin to track vascular leakage. Sulfo-NHS Biotin (Thermo-Fisher; Catalog #21335) was dissolved in sterile 1×PBS (20 mg/mL) and sterilized through a […] filter. Mice were then restrained in tail vein apparatus and injected intravenously with 100 μL Sulfo-NHS biotin. […]

The next test relates to optic nerve. Kind of test: Optic nerve crush, axon repair after intravitreal injection. Type of test: in vivo, mice. As to conditions: for greater abundance of CTB-containing axon segments vs vehicle: measurements above the median, p≤0.02. The protocol:
To further examine the effects of CMPs on nerve regeneration, optic nerve crush experiments were performed. This approach is a useful model of traumatic optic neuropathy and for assessing potential neuroreparative and neuroregenerative strategies (Cameron, E G et al., Bio-protocol 10(6) (Mar. 20, 2020), doi: 10.21769/BioProtoc.3559). Axon degeneration in this injury model also involves degradation of matrix collagen associated with robust tissue remodeling (Bernardo-Colon, A et al., Cell Death Dis. 9:1097 (2018); Sharma, T P et al., Mol. Neurodegener. 9:14 (2014)). Mice were subjected to […] nerve crush, and then three days later received an intravitreal injection of vehicle (DMSO) or of fluorescently tagged CMP 13A (SEQ ID NO:6). Optic nerves were longitudinally sectioned in the site of the injury two weeks following nerve crush, and sections were examined for axon length (via cholera toxin B labeling) and CMP localization (via fluorescence microscopy). Sections were also labeled with glial fibrillary acidic protein (GFAP) to localize astrocyte glia in the sections. […] Repaired axons were largely coincident with localized patches of CMP (FIG. 6C, arrows). Scale=200 μm (FIG. 6A) or 100 μm (FIGS. 6B,C).
Next, we quantitated the number of CTB+ green axon segments at discrete distances distal from the crush site (towards the brain). […] Even so, in both cohorts, there were a number of samples with few, if any, axons distal from the crush site, leading to substantial variability (FIG. 7B, inset). To better estimate the magnitude of the effect due to CMP 13A compared to vehicle, we pooled the measurements above the median at each location into three bins: 50-100 μm, 200-300 μm, and 400 μm and further from the injury site. […] Intact axon segments in these nerves were also longer than those in nerves from vehicle-treated eyes. The mean length of intact axon segments in nerves from CMP 13A-treated eyes was 51% greater than that in the vehicle cohort: 122.6±5.5 vs. 81.1±8.3 μm (p<0.001; FIG. 7D). Similarly, the mean for the longest 25 segments in the CMP 13A nerves was nearly 80% greater than that for vehicle nerves: 228.1±12.9 vs. 127.8±10.5 μm (p<0.001; FIG. 7E).

The values that follow come from patent publication US20260115261A1, “COLLAGEN PEPTIDE-BASED MEDICAMENT COMPOSITIONS AND USES THEREOF” (SUSTAIN HOLDINGS, LLC, priority 2023, published 2026).

Regarding “Pro-Flp-Gly-Pro-Flp-Gly-Pro-Flp-Gly-Pro-Flp-Gly-Pro-Flp-Gly-Pro-Flp-Gly-Pro-Flp-Gly [CMP 09C]”, the “longest neurite outgrowth, greater than intact collagen” value in test [1] (48 hours, MMP1-digested collagen + CMP 100 μM, normalized to intact collagen, p<0.036) is on record as 21%. Further, the “neurite outgrowth of DRG explants (phase contrast micrographs)” value in test [1] (explants on damaged (MMP-1-digested) collagen treated with CMP 100 μM, 24 and 48 hours) is recorded as “improved outgrowth”.

Regarding “Flp-Hyp-Gly-Flp-Hyp-Gly-Flp-Hyp-Gly-Flp-Hyp-Gly-Flp-Hyp-Gly-Flp-Hyp-Gly-Flp-Hyp-Gly [CMP 13A]”, in test [2] (3 months post-treatment, Sulfo-NHS biotin intravenous one day before euthanasia), the “vascular leakage of biotin” value is “not observed”. Also, the “distance from individual astrocytes to the nearest blood vessel” value in test [2] (CA1 (p<0.0001) and DG (p=0.0004)) is “closer to blood vessels than in PBS-treated mice”. The “GFAP density vs PBS” value in test [2] (CA1 (p=0.07) and DG (p=0.06)) is listed as “not significantly different”. For the same substance, in test [2] (CA1, DG and cortex), the “biotin intensity (secondary measure of vessel density) vs PBS” value is “increased biotin labeling”. Further, the “CD31 intensity vs PBS” value in test [2] (CA1, cortex and DG (p=0.02, p<0.0001, p=0.01), 0.1 mg/Kg intravenous once weekly for 12 weeks) is recorded as “increased”. For the same substance, the “increase of collagen IV intensity relative to PBS-treated controls” value in test [2] (CA1, p=0.01) is on record as 170%; in test [2] (DG, p=0.04), 52%; in test [2] (cortex, p=0.01) it was 175%. The “number of astrocyte soma vs PBS” value in test [2] (CA1, p=0.02) is reported as “decreased”; in test [2] (DG, p=0.31), “not significantly different”. For the same substance, the “area of CD31-positive vessels vs PBS” value in test [2] (CA1 and cortex (p=0.001 and p<0.0001), (cis-Flp-Hyp-Gly)7 0.1 mg/Kg intravenous once weekly for 12 weeks) was “significant increase”. For the same substance, in test [2] (DG only (p=0.04)), the “CD31 intensity as a ratio of biotin intensity vs PBS” value is listed as “significantly increased”. Further, the “vessel (CD31) area vs control” value in test [2] (DG, 0.1 mg/Kg intravenous once weekly for 12 weeks) is listed as “no significant difference”. Further, in test [2] (all brain regions, vs shorter, more fragmented vessels in PBS-treated mice), the “vascular structure by biotin labeling” value is “longer, more complex vessels with increased branching”. Besides, the “greater abundance of CTB-containing axon segments vs vehicle” value is listed as 29% in the test on optic nerve (50-100 μm from injury site); 39% with optic nerve (200-300 μm from injury site); 96% in the test with optic nerve (400 μm and further from injury site). The “number of CTB+ axon segments at discrete distances distal from the crush site” value with optic nerve (fluorescently tagged CMP 13A intravitreal 3 days after crush, two weeks after crush, vs vehicle (DMSO)) is given as “more axon segments than nerves from vehicle eyes at each location examined”. In addition, the “distance of CTB+ segments distal from the injury, some samples” value with optic nerve (two weeks after crush) is given as at most 1 mm. Besides, the “mean for the longest 25 segments” value in the test on optic nerve (two weeks after crush) was 228.1±12.9 μm. Further, in the test with optic nerve (two weeks after crush), the “mean length of intact axon segments” value was 122.6±5.5 μm. Besides, the “mean for the longest 25 segments, greater than vehicle nerves” value in the test with optic nerve (two weeks after crush, p<0.001) is about 80%. For the same substance, the “mean length of intact axon segments, greater than vehicle cohort” value in the test with optic nerve (two weeks after crush, p<0.001) is reported as 51%.
